The results in this text go back to article PMC9182141, “Assay Development and Identification of the First Plasmodium falciparum 7,8-dihydro-6-hydroxymethylpterin-pyrophosphokinase Inhibitors” (Molecules, 2022).

In data set [1] the test system is Plasmodium falciparum TM4/8.2 (drug sensitive). The data set is described as follows: Antimalarial activity, [3H]-hypoxanthine incorporation assay, TM4/8.2. The conditions noted are these: P. falciparum TM4/8.2 (drug sensitive), when no IC50 could be determined, highest tested concentration noted. Format: cell-based. Here is the method:
(§1) Finally, the various hit compounds were tested for their antimalarial activity against P. falciparum TM4/8.2 [26] and V1/S [27] strains. Parasite cultures were treated with test compounds at different concentrations, and antimalarial activity was measured using [3H]-hypoxanthine incorporation assay, according to our previously reported protocol. […] IC50 values could not be measured for other compounds. At this stage, there is no explanation for the difference in antiparasitic activity observed between TM4/8.2 and V1/S strains, and more investigations would be needed to conclude on this effect.
(§2) Compounds were tested for their antimalarial activity against P. falciparum TM4/8.2 [26] and V1/S [27] strains according to our previously reported protocol. In brief, parasite strains were maintained continuously in human erythrocytes in RPMI1640 supplemented with 25 mM HEPES pH 7.4, 0.2% NaHCO3, 40 µg/mL gentamicin and 8% human serum at 37 °C under 3% CO2. For in vitro antimalarial assay, parasite was treated with serial dilutions of the inhibitors, and parasite survival was determined using a modified microdilution radioisotope technique.

Data set [2] deals with KB cell line (human epithelial carcinoma cells). Kind of data set: Cytotoxicity, sulforhodamine B assay, KB cells. Format: cell-based. The conditions noted are these: 72 h, when no IC50 could be determined, highest tested concentration noted. On the technique in general: The SRB assay estimates cell density from bound dye.
Data set [3] has as its target T1, PfHPPK-GFP (Plasmodium falciparum, UniProt Q25704). The data set is described as follows: KinaseGlo enzyme inhibition assay. Format: biochemical. The conditions noted are these: 1 mM compound, 10 μM HMDP and 10 μM ATP, 20 min at RT; read-out: Inhib. at 1 mM (%). Here is the method:
For all the compounds displaying a measurable change of Tm, PfHPPK inhibition was recorded at 10 μM HMDP and ATP and 1 mM compound using the KinaseGlo assay. These conditions were chosen to be in the reported Km range for both HMDP and ATP substrates, enabling detection of both competitive and uncompetitive inhibitors. Compounds were incubated with HMDP, ATP and HPPK-GFP for 20 min at RT, followed by addition of the KinaseGlo reagent. After 10 min equilibration, luminescence was recorded, which directly reflects the quantity of ATP left in solution at the end of the reaction. Percentages of inhibition were calculated based on a DMSO positive control and a negative control lacking HPPK-GFP. Compounds structures, ΔTm and levels of inhibition appear in Table 1 and Table 2.
PfHPPK-GFP inhibition assay was carried using the KinaseGlo Plus kit (Promega, Madison, WI, USA). In a black 96-well plate were dispensed test compounds (1 μL of 50 mM DMSO stock), master mix (100 mM Tris pH 9, 10 mM β-mercapto ethanol, 10 mM MgSO4, 0.01% w/v BSA, 10 μM HMDP and 10 μM ATP). Reaction was initiated by addition of 2 μg of enzyme, reaching a total reaction volume of 50 μL, and reaction was allowed to proceed for 20 min at RT shaking at 300 rpm. Reaction was then quenched by addition of 50 μL KinaseGlo reagent and allowed to equilibrate for 10 min at RT shaking at 300 rpm. Luminescence was recorded on a Biotek Synergy H1 plate reader (Agilent, Santa Clara, CA, USA) using an integration time of 1 s per well. Percentage of inhibition was calculated related to a positive control experiment (no enzyme added) and a negative control experiment (no inhibitor added).

In data set [4] the target is T1, PfHPPK-GFP. Kind of data set: DSF-GTP (GFP-tagged protein differential scanning fluorimetry) thermal shift. Format: binding. As to conditions: read-out: ΔTm (°C). Here is the method:
In a preliminary screening experiment, buffer conditions were investigated, searching for conditions that provide the largest thermal shift in the presence of 1 mM ATP. DSF curves were recorded under a total of 17 different conditions, with variations in buffer nature and pH, salts nature and concentration, effect of reducing agent, MgSO4 and glycerol.
From there, protein binding properties of the hit compounds were assessed experimentally using the developed DSF-GTP assay. A total of 54 compounds were tested, including virtual screening hits and closely related structures. According to our protocol, each compound was mixed with PfHPPK-GFP and submitted to a temperature gradient from 30 °C to 90 °C at 1 °C/min while GFP fluorescence was recorded. The first derivative of the resulting curve was used to determine the melting temperature (Tm). For each set of experiments, a negative control containing DMSO was added, and ΔTm values were calculated for each compound vs. the DMSO control. […] Two compound families were identified as the most promising by our DSF-GTP assay: 5-phenylazo-2,4-diaminopyrimidines (series 1) and phenyltriazolyl-2-amino-4-pyrimidinone (series 2). In series 2, linkers of different lengths that separate the phenyl triazolyl and the pyrimidine moieties were included.
In a typical DSF-GTP experiment, a master mix containing buffer and PfHPPK-GFP was prepared in a microcentrifuge tube, corresponding to a final protein concentration of 20 μg/mL. Ligands of interest were dispensed in low-profile 96-well plates (Bio-Rad) to 1 mM final concentration, and the master mix was dispensed to a final volume of 50 μL per well. In these conditions, DMSO content was maintained constant at 2%. The microplate was sealed with adhesive film and mixed by shaking for 2 min at 800 rpm at RT. The microplate was then submitted to a DSF run on a CFX96 RT-PCR (Bio-Rad, Hercules, CA, USA). DSF program was designed by starting with a 3 min equilibration phase at 30 °C, followed by a temperature gradient of 1 °C/min until 90 °C, recording fluorescence every 0.5 °C. Fluorescence was recorded using the FAM channel (λex = 450–490 nm, λem = 510–530 nm). Curves were fitted using the Precision Melt Analysis software (Bio-Rad).
(In general: In DSF a fluorescence change marks the thermal transition of the protein.)

The subject of data set [5] is Vero cell line (African green monkey kidney cells). The data set is described as follows: Cytotoxicity, sulforhodamine B assay, Vero cells. Format: cell-based. As to conditions: Chlorocebus sabaeus, 72 h, when no IC50 could be determined, highest tested concentration noted.
Data set [6] has as its system Plasmodium falciparum V1/S (drug resistant). The data set is described as follows: Antimalarial activity, [3H]-hypoxanthine incorporation assay, V1/S. Format: cell-based. As to conditions: P. falciparum V1/S (drug resistant), when no IC50 could be determined, highest tested concentration noted. Here is the method: as §1, §2
Data set [7] in a line: Metabolic stability in rat liver microsomes. As to conditions: for microsomal CLint: rat, liver microsomes. Here is the method: (§3) Intrinsic clearance was also measured in both human and rat liver microsomes in order to assess sensitivity to metabolic degradation.
(§4) Metabolic stability of test compounds was determined in human and rat liver microsomes. The assay was adapted from a previously published method. Briefly, the test compounds were mixed with liver microsomes, and the metabolic reactions were initiated by the addition of NADPH. Acetonitrile containing an internal standard (labetalol) was added at 0, 5, 10, 30, and 60 min to stop the reactions. Samples were processed, and the remaining compounds in the reactions were detected using a LC-MS/MS. Distribution coefficient, solubility and polar surface area were predicted using Marvin software. Partition coefficient was predicted using ACD/Labs software.

Data set [8] in a line: Metabolic stability in human liver microsomes. As to conditions: for microsomal CLint: human, liver microsomes. Here is the method: as §3, §4
For orientation: Liver microsomes are vesicles of endoplasmic reticulum, rich in cytochrome P450 enzymes.

Counter-ions that a name gives are not always drawn. A value given as a limit tells only on which side of the number the result lay.

T1 sequence (Q25704 entry or part of it): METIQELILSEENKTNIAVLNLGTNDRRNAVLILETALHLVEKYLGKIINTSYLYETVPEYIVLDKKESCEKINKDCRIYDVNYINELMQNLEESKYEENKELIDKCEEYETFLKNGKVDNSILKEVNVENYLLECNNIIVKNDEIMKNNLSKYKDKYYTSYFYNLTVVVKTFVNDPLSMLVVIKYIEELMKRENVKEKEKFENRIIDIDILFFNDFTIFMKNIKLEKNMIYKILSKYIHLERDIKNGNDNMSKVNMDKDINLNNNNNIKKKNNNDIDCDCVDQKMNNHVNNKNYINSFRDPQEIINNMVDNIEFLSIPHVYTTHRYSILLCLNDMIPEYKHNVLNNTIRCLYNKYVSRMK

By IC50 is commonly meant the point on the concentration scale where inhibition reaches its midpoint. One may read the ΔTm as the change in melting temperature against a reference sample. Consider `COc1nc(N)nc(N)c1/N=N/c1cccc([N+](=O)[O-])c1` [Compound 1, (E)-6-Methoxy-5-((3-nitrophenyl)diazenyl)pyrimidine-2,4-diamine], for which the IC50 in data set [1] was more than 100 µM; in data set [2], more than 100 µM; in data set [5] it was more than 100 µM; in data set [6], 21 µM; in data set [6] (Plasmodium falciparum), 21 µM. Moreover, the inhibition at 1000 µM on PfHPPK-GFP [3] was found to be 2.5 ± 1.4%. Further, the ΔTm at 1000 µM at PfHPPK-GFP [4] is -1 °C.
Consider `COC(=O)c1cccc(/N=N/c2c(N)nc(N)nc2Cl)c1` [Compound 2, Methyl (E)-3-((2,4-diamino-6-chloropyrimidin-5-yl)diazenyl) benzoate], for which the IC50 was more than 100 µM in data set [1]; more than 100 µM in data set [2]; more than 100 µM in data set [5]; 89.2 µM in data set [6]; 89.2 µM in data set [6] (Plasmodium falciparum). At PfHPPK-GFP [3], the inhibition at 1000 µM worked out at 11 ± 4.8%. The ΔTm at 1000 µM at PfHPPK-GFP [4] is -1 °C.
As usually defined, the microsomal CLint is a measure of how fast metabolising enzymes remove a compound, apart from limits set by blood flow. For `COc1nc(N)nc(N)c1/N=N/c1cccc(C(=O)O)c1` [Compound 3, (E)-3-((2,4-Diamino-6-methoxypyrimidin-5-yl)diazenyl) benzoic acid], the IC50 is more than 50 µM in data set [1], more than 100 µM in data set [2], more than 100 µM in data set [5] and more than 50 µM in data set [6] (Plasmodium falciparum). The intrinsic metabolic clearance (microsomal CLint) in data set [7] and in data set [8] was less than 3 µL/min/mg each time. Moreover, on PfHPPK-GFP [3], the inhibition at 1000 µM was determined as 23.3 ± 4.8%. Further, on PfHPPK-GFP [4], the thermal shift (ΔTm) at 1000 µM was -1 °C.
For `Nc1nc(N)c(/N=N/c2ccccc2)c(N)n1` [Compound 4, (E)-5-(Phenyldiazenyl)pyrimidine-2,4,6-triamine], the IC50 in data set [1] was 75.4 µM; in data set [2] it was 62.4 µM; in data set [5], 29.6 µM; in data set [6] (Plasmodium falciparum), more than 50 µM. Moreover, the intrinsic metabolic clearance (microsomal CLint) in data set [7] was determined as 82.4 µL/min/mg; in data set [8], 363 µL/min/mg. The inhibition at 1000 µM on PfHPPK-GFP [3] was 46 ± 7.5%. In addition, the shift in melting temperature (ΔTm) at 1000 µM on PfHPPK-GFP [4] was -1 °C.
`Nc1nc(N)c(/N=N/c2cccc(C(=O)O)c2)c(N)n1` [Compound 5, (E)-3-((2,4,6-Triaminopyrimidin-5-yl)diazenyl)benzoic acid]: the IC50 in data set [1] and in data set [6] (Plasmodium falciparum) was more than 10 µM in each case. Besides, on PfHPPK-GFP [3], the inhibition at 1000 µM is 14.6 ± 3.2%. For the same molecule, on PfHPPK-GFP [4], the ΔTm at 1000 µM was -1 °C.
For `Cc1nc(N)[nH]c(=O)c1Cc1cn(-c2ccc(C(=O)O)cc2)nn1` [Compound 6, 2-Amino-6-methyl-5-((1-(4-(carboxy)phenyl)-1H-1,2,3-triazol-4-yl)methyl)pyrimidin-4(3H)-one], the IC50 in data set [1], in data set [2], in data set [5] and in data set [6] (Plasmodium falciparum) was more than 25 µM each time. Moreover, at PfHPPK-GFP [3], the inhibition at 1000 µM was found to be 1.8 ± 0.6%. Further, the ΔTm at 1000 µM at PfHPPK-GFP [4] is -1 °C.
`Cc1nc(N)[nH]c(=O)c1Cc1cn(-c2cccc(C(=O)O)c2)nn1` [Compound 7, 2-Amino-6-methyl-5-((1-(3-(carboxy)phenyl)-1H-1,2,3-triazol-4-yl)methyl)pyrimidin-4(3H)-one]: the 50% inhibitory concentration (IC50) in data set [1], in data set [2], in data set [5] and in data set [6] (Plasmodium falciparum) was more than 25 µM in each case. Further, the inhibition at 1000 µM at PfHPPK-GFP [3] worked out at 9.2 ± 1.5%. The shift in melting temperature (ΔTm) at 1000 µM at PfHPPK-GFP [4] is -1 °C.
Take `CCc1nc(N)[nH]c(=O)c1Cc1cn(-c2ccc(C(=O)O)cc2)nn1` [Compound 8, 2-Amino-6-ethyl-5-((1-(4-(carboxy)phenyl)-1H-1,2,3-triazol-4-yl)methyl)pyrimidin-4(3H)-one]: the IC50 in data set [1], in data set [2], in data set [5] and in data set [6] (Plasmodium falciparum) was more than 50 µM each time. In addition, the inhibition at 1000 µM on PfHPPK-GFP [3] was 6.9 ± 2%. The thermal shift (ΔTm) at 1000 µM on PfHPPK-GFP [4] was -1.2 ± 0.3 °C.
With `CCc1nc(N)[nH]c(=O)c1Cc1cn(-c2cccc(C(=O)O)c2)nn1` [Compound 9, 2-Amino-6-ethyl-5-((1-(3-(carboxy)phenyl)-1H-1,2,3-triazol-4-yl)methyl)pyrimidin-4(3H)-one], the half-maximal inhibitory concentration (IC50) in data set [1], in data set [2], in data set [5] and in data set [6] (Plasmodium falciparum) was more than 50 µM throughout. Besides, on PfHPPK-GFP [3], the inhibition at 1000 µM worked out at 16.4 ± 2.9%. Moreover, at PfHPPK-GFP [4], the thermal shift (ΔTm) at 1000 µM is -1 °C.
As for `CCc1nc(N)[nH]c(=O)c1Cc1cn(-c2cccc([N+](=O)[O-])c2)nn1` [Compound 10, 2-Amino-6-ethyl-5-((1-(3-(nitro)phenyl)-1H-1,2,3-triazol-4-yl)methyl)pyrimidin-4(3H)-one hydrochloride], the IC50 in data set [1], in data set [2], in data set [5] and in data set [6] (Plasmodium falciparum) was more than 50 µM each time. Further, the inhibition at 1000 µM on PfHPPK-GFP [3] came to 12.1 ± 4%. The thermal shift (ΔTm) at 1000 µM at PfHPPK-GFP [4] was -1.2 ± 0.3 °C.
Turning to `CCc1nc(N)[nH]c(=O)c1CCc1cn(-c2cccc(C(=O)O)c2)nn1` [Compound 12, 2-Amino-6-ethyl-5-(2-(1-(3-(carboxy)phenyl)-1H-1,2,3-triazol-4-yl)ethyl)pyrimidin-4(3H)-one hydrochloride], the IC50 in data set [1], in data set [2], in data set [5] and in data set [6] (Plasmodium falciparum) was more than 50 µM each time. Besides, the inhibition at 1000 µM on PfHPPK-GFP [3] came to 24.5 ± 2.3%. On PfHPPK-GFP [4], the ΔTm at 1000 µM was -1.3 ± 0.3 °C.
Regarding `CCc1nc(N)nc(N)c1OCCCOc1ccccc1CCC(=O)O` [Compound P218, reference compound], the “CLint (RLM)” value in data set [7] (rat liver microsomes, NADPH) is less than 3 µL/min/mg. In data set [8] (human liver microsomes, NADPH), the “CLint (HLM)” value was less than 3 µL/min/mg.
